Results from patent publication US9695155B2, “Herbicidal substituted pyrimidinyloxy benzene compounds” (E. I. DU PONT DE NEMOURS AND COMPANY, priority 2013, dated 2017).

Tests used:
bluegrass = assay: Test D preemergence; type: in vivo, Poa annua; details: Poa annua, pre-emergence
Outline: (§1)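 Visual rating vs untreated controls, 0 = no effect, 100 = complete control, taken 7–21 d after treatment. Pre: silt loam soil. Post: potting medium, plants 2–18 cm, 1–4 leaf. Formulation: non-phytotoxic solvent mix + surfactant.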

wild mustard = assay: Test D preemergence; type: in vivo, Sinapis arvensis; details: Brassica, pre-emergence
Outline: as §1

blackgrass = assay: Test D postemergence; type: in vivo, Alopecurus myosuroides; details: Alopecurus myosuroides, post-emergence, Postemergence, scale 0 to 100 (0 no effect, 100 complete control), read-out: Plant response rating, Blackgrass
Outline: as §1

canarygrass = assay: Test D postemergence; type: in vivo, Phalaris minor; details: Phalaris minor, post-emergence
Outline: as §1

galium = assay: Test D postemergence; type: in vivo, Galium aparine; details: Galium, post-emergence
Outline: as §1

field poppy = assay: Test D postemergence; type: in vivo, Papaver rhoeas; details: Papaver rhoeas, post-emergence
Outline: as §1

field violet = assay: Test D postemergence; type: in vivo, Viola arvensis; details: Viola arvensis, post-emergence, scale 0 to 100 (0 no effect, 100 complete control), read-out: Plant response rating, Field Violet
Outline: as §1

green foxtail = assay: Test D postemergence; type: in vivo, Setaria viridis; details: Setaria viridis, post-emergence
Outline: as §1

pigweed = assay: Test D postemergence; type: in vivo, Amaranthus retroflexus; details: Amaranthus retroflexus, post-emergence
Outline: as §1

spring barley = assay: Test D postemergence; type: in vivo, Hordeum vulgare; details: Hordeum vulgare, post-emergence, Postemergence, scale 0 to 100 (0 no effect, 100 complete control), read-out: Plant response rating, Barley, Spring
Outline: as §1

winter barley = assay: Test D postemergence; type: in vivo, Hordeum vulgare; details: Hordeum vulgare, post-emergence, Postemergence, scale 0 to 100 (0 no effect, 100 complete control), read-out: Plant response rating, Barley, Winter
Outline: as §1

wild buckwheat = assay: Test D postemergence; type: in vivo, Polygonum convolvulus; details: Fallopia convolvulus, post-emergence, Postemergence, scale 0 to 100 (0 no effect, 100 complete control), read-out: Plant response rating, Buckwheat, Wild
Outline: as §1

ragweed = assay: Test F preemergence; type: in vivo, Ambrosia elatior; details: 21 days, scale 0 to 100
Outline: (§2)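 Loam/sand mix; preemergence spray, non-phytotoxic solvent + surfactant; greenhouse 21 d; visual injury vs untreated, 0 (none)–100 (complete control).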

dallisgrass = assay: Test F preemergence; type: in vivo, Paspalum dilatatum; details: 21 days, scale 0 to 100
Outline: as §2

Italian ryegrass = assay: Test F preemergence; type: in vivo, Lolium multiflorum; details: 21 days, scale 0 to 100
Text: Seeds of plant species selected from bermudagrass (Cynodon dactylon), surinam grass (Brachiaria decumbens), large (Lg) crabgrass (Digitaria sanguinalis), crabgrass, naked (naked crabgrass, Digitaria nuda), foxtail, green (green foxtail, Setaria viridis), johnsongrass (Sorghum halepense), kochia (Kochia scoparia), morningglory (pitted morningglory, Ipomoea lacunosa), nutsedge, purple (purple nutsedge, Cyperus rotundus), ragweed (common ragweed, Ambrosia elatior), mustard, black (black mustard, Brassica nigra), guineagrass (Panicum maximum), dallisgrass (Paspalum dilatatum), barnyardgrass (Echinochloa crus-galli), sandbur (southern sandbur, Cenchrus echinatus), sowthistle (common sowthistle, Sonchus oleraceous), Italian ryegrass (Lolium multiflorum), signalgrass (broadleaf signalgrass, Brachiaria platyphylla), dayflower (Virginia (VA) dayflower, Commelina virginica), bluegrass (annual bluegrass, Poa annua), quackgrass (Elytrigia repens), mallow (common mallow, Malva sylvestris), buckwheat, wild (wild buckwheat, Polygonum convolvulus), leafy spurge (Euphorbia esula), chickweed (common chickweed, Stellaria media), wild poinsettia (Euphorbia heterophylla), and pigweed (Amaranthus retroflexus) were planted into a blend of loam soil and sand and treated preemergence with test chemicals formulated in a non-phytotoxic solvent mixture which included a surfactant.
Treated plants and controls were maintained in a greenhouse for 21 days, after which time all species were compared to controls and visually evaluated. Plant response ratings, summarized in Table F, are based on a scale of 0 to 100 where 0 is no effect and 100 is complete control. A dash (-) response means no test result.

quackgrass = assay: Test F preemergence; type: in vivo, Elytrigia repens; details: 21 days, scale 0 to 100
Outline: as §2

## N#Cc1cccc(Oc2ncc(Cl)cn2)c1-n1cc(OCC(F)(F)F)cn1 [Compound 274, 3-[(5-chloro-2-pyrimidinyl)oxy]-2-[4-(2,2,2-trifluoroethoxy)-1H-pyrazol-1-yl]benzonitrile]
bluegrass; 16 g ai/ha, scale 0 (no effect) to 100 (complete control), read-out: Plant response rating, Bluegrass
  pest or weed control at 16 g/ha: 0%
bluegrass; 31 g ai/ha, scale 0-100, read-out: Plant response rating, Bluegrass
  pest or weed control at 31 g/ha: 5%
bluegrass; 62 g ai/ha, scale 0-100, read-out: Plant response rating, Bluegrass
  pest or weed control at 62 g/ha: 30%
bluegrass; 125 g ai/ha, scale 0-100, read-out: Plant response rating, Bluegrass
  pest or weed control at 125 g/ha: 70%
Wild mustard; 16 g ai/ha, scale 0 (no effect) to 100 (complete control), read-out: Plant response rating, Mustard, Wild
  pest or weed control at 16 g/ha: 15%
Wild mustard; 31 g ai/ha, scale 0-100, read-out: Plant response rating, Mustard, Wild
  pest or weed control at 31 g/ha: 25%
Wild mustard; 62 g ai/ha, scale 0-100, read-out: Plant response rating, Mustard, Wild
  pest or weed control at 62 g/ha: 95%
Wild mustard; 125 g ai/ha, scale 0-100, read-out: Plant response rating, Mustard, Wild
  pest or weed control at 125 g/ha: 100%
blackgrass; 62 g ai/ha
  pest or weed control at 62 g/ha: 20%
blackgrass; 16 g ai/ha
  pest or weed control at 16 g/ha: 10%
blackgrass; 31 g ai/ha
  pest or weed control at 31 g/ha: 15%
blackgrass; 125 g ai/ha
  pest or weed control at 125 g/ha: 30%
canarygrass; 16 g ai/ha, scale 0-100, read-out: Plant response rating, Canarygrass
  pest or weed control at 16 g/ha: 15%
canarygrass; 31 g ai/ha, scale 0 to 100 (0 no effect, 100 complete control), read-out: Plant response rating, Canarygrass
  pest or weed control at 31 g/ha: 20%
canarygrass; 62 g ai/ha, scale 0 to 100 (0 no effect, 100 complete control), read-out: Plant response rating, Canarygrass
  pest or weed control at 62 g/ha: 25%
canarygrass; 125 g ai/ha, scale 0 to 100 (0 no effect, 100 complete control), read-out: Plant response rating, Canarygrass
  pest or weed control at 125 g/ha: 30%
galium; 16 g ai/ha, scale 0-100, read-out: Plant response rating, Galium
  pest or weed control at 16 g/ha: 70%
galium; 31 g ai/ha, scale 0 to 100 (0 no effect, 100 complete control), read-out: Plant response rating, Galium
  pest or weed control at 31 g/ha: 70%
galium; 62 g ai/ha, scale 0 to 100 (0 no effect, 100 complete control), read-out: Plant response rating, Galium
  pest or weed control at 62 g/ha: 75%
galium; 125 g ai/ha, scale 0 to 100 (0 no effect, 100 complete control), read-out: Plant response rating, Galium
  pest or weed control at 125 g/ha: 85%
Field poppy; 16 g ai/ha, scale 0-100, read-out: Plant response rating, Field Poppy
  pest or weed control at 16 g/ha: 25%
Field poppy; 31 g ai/ha, scale 0 to 100 (0 no effect, 100 complete control), read-out: Plant response rating, Field Poppy
  pest or weed control at 31 g/ha: 40%
Field poppy; 62 g ai/ha, scale 0 to 100 (0 no effect, 100 complete control), read-out: Plant response rating, Field Poppy
  pest or weed control at 62 g/ha: 40%
Field poppy; 125 g ai/ha, scale 0 to 100 (0 no effect, 100 complete control), read-out: Plant response rating, Field Poppy
  pest or weed control at 125 g/ha: 80%
Field violet; 31 g ai/ha
  pest or weed control at 31 g/ha: 75%
Field violet; 62 g ai/ha
  pest or weed control at 62 g/ha: 70%
Field violet; 125 g ai/ha
  pest or weed control at 125 g/ha: 85%
Green foxtail; 16 g ai/ha, scale 0-100, read-out: Plant response rating, Foxtail, Green
  pest or weed control at 16 g/ha: 15%
Green foxtail; 31 g ai/ha, scale 0 to 100 (0 no effect, 100 complete control), read-out: Plant response rating, Foxtail, Green
  pest or weed control at 31 g/ha: 20%
Green foxtail; 62 g ai/ha, scale 0 to 100 (0 no effect, 100 complete control), read-out: Plant response rating, Foxtail, Green
  pest or weed control at 62 g/ha: 25%
Green foxtail; 125 g ai/ha, scale 0 to 100 (0 no effect, 100 complete control), read-out: Plant response rating, Foxtail, Green
  pest or weed control at 125 g/ha: 45%
pigweed; 16 g ai/ha, scale 0-100, read-out: Plant response rating, Pigweed
  pest or weed control at 16 g/ha: 75%
pigweed; 31 g ai/ha, scale 0 to 100 (0 no effect, 100 complete control), read-out: Plant response rating, Pigweed
  pest or weed control at 31 g/ha: 95%
pigweed; 62 g ai/ha, scale 0 to 100 (0 no effect, 100 complete control), read-out: Plant response rating, Pigweed
  pest or weed control at 62 g/ha: 95%
pigweed; 125 g ai/ha, scale 0 to 100 (0 no effect, 100 complete control), read-out: Plant response rating, Pigweed
  pest or weed control at 125 g/ha: 95%
Spring barley; 16 g ai/ha
  plant injury at 16 g/ha: 20%
Spring barley; 31 g ai/ha
  plant injury at 31 g/ha: 25%
Spring barley; 62 g ai/ha
  plant injury at 62 g/ha: 30%
Spring barley; 125 g ai/ha
  plant injury at 125 g/ha: 35%
Winter barley; 16 g ai/ha
  plant injury at 16 g/ha: 10%
Winter barley; 31 g ai/ha
  plant injury at 31 g/ha: 20%
Winter barley; 62 g ai/ha
  plant injury at 62 g/ha: 25%
Winter barley; 125 g ai/ha
  plant injury at 125 g/ha: 30%
Wild buckwheat; 16 g ai/ha
  pest or weed control at 16 g/ha: 65%
Wild buckwheat; 31 g ai/ha
  pest or weed control at 31 g/ha: 85%
Wild buckwheat; 62 g ai/ha
  pest or weed control at 62 g/ha: 100%
Wild buckwheat; 125 g ai/ha
  pest or weed control at 125 g/ha: 100%
ragweed; 16 g ai/ha
  Plant response rating, Ragweed: 30
ragweed; 31 g ai/ha
  Plant response rating, Ragweed: 30
ragweed; 62 g ai/ha
  Plant response rating, Ragweed: 30
ragweed; 125 g ai/ha
  Plant response rating, Ragweed: 70
ragweed; 250 g ai/ha
  Plant response rating, Ragweed: 100
dallisgrass; 16 g ai/ha
  Plant response rating, Dallisgrass: 95
dallisgrass; 31 g ai/ha
  Plant response rating, Dallisgrass: 100
dallisgrass; 62 g ai/ha
  Plant response rating, Dallisgrass: 100
dallisgrass; 125 g ai/ha
  Plant response rating, Dallisgrass: 100
dallisgrass; 250 g ai/ha
  Plant response rating, Dallisgrass: 100
Italian ryegrass; 16 g ai/ha
  Plant response rating, Ryegrass, Italian: 35
Italian ryegrass; 31 g ai/ha
  Plant response rating, Ryegrass, Italian: 40
Italian ryegrass; 62 g ai/ha
  Plant response rating, Ryegrass, Italian: 70
Italian ryegrass; 125 g ai/ha
  Plant response rating, Ryegrass, Italian: 75
Italian ryegrass; 250 g ai/ha
  Plant response rating, Ryegrass, Italian: 100
quackgrass; 16 g ai/ha
  Plant response rating, Quackgrass: 40
quackgrass; 31 g ai/ha
  Plant response rating, Quackgrass: 40
quackgrass; 62 g ai/ha
  Plant response rating, Quackgrass: 70
quackgrass; 125 g ai/ha
  Plant response rating, Quackgrass: 85
quackgrass; 250 g ai/ha
  Plant response rating, Quackgrass: 98
